Conditions: for viscosity / mass density: 101.33 kPa, Liquid; for viscosity: Cone and plate viscometry; for mass density: Vibrating tube method; for Normal melting temperature: Crystal, DTA; for Glass transition temperature: DSC

CCCC[P+](CC)(CC)CC.O=[N+]([O-])c1cn[n-]c1 [butyltriethylphosphonium 4-nitropyrazolide]
Conditions	Normal melting temperature [°C]	mass density [kg/m3]	viscosity [mPa·s]
–	44	–	–
278.15 K	–	–	840
283.15 K	–	1087.9	551
288.15 K	–	1084.7	372
293.15 K	–	1081.5	261
295.15 K	–	1080.3	–
298.15 K	–	1078.4	189
303.15 K	–	1075.4	141
308.15 K	–	1072.4	108
313.15 K	–	1069.3	85
318.15 K	–	1066.3	67
323.15 K	–	1063.3	55
328.15 K	–	1060.3	–
333.15 K	–	1057.3	–
338.15 K	–	1054.3	–
343.15 K	–	1051.3	–
348.15 K	–	1048.4	–
353.15 K	–	1045.4	–

CCCCCCCCCCCCCC[P+](CCCCCC)(CCCCCC)CCCCCC.Clc1nc[n-]c1Cl [trihexyl(tetradecyl)phosphonium 4,5-dichloroimidazolide]
Conditions	Glass transition temperature [°C]	mass density [kg/m3]	viscosity [mPa·s]
–	-64	–	–
278.15 K	–	–	4040
283.15 K	–	974.1	2580
288.15 K	–	970.8	1680
293.15 K	–	967.5	1140
295.15 K	–	966.2	–
298.15 K	–	964.4	789
303.15 K	–	961.3	566
308.15 K	–	958.3	415
313.15 K	–	955.2	308
318.15 K	–	952.2	234
323.15 K	–	949.1	182
328.15 K	–	946.2	144
333.15 K	–	943.2	116
338.15 K	–	940.2	–
343.15 K	–	937.2	–
348.15 K	–	934.2	–
353.15 K	–	931.3	–

CC[P+](CC)(CC)COCCOC.O=[N+]([O-])c1cn[n-]c1
Conditions	Glass transition temperature [°C]	Normal melting temperature [°C]	mass density [kg/m3]	viscosity [mPa·s]
–	-76	-15	–	–
278.15 K	–	–	–	309
283.15 K	–	–	1149.2	216
288.15 K	–	–	1145.8	156
293.15 K	–	–	1142.4	116
295.15 K	–	–	1141	–
298.15 K	–	–	1139	88
303.15 K	–	–	1135.6	69
308.15 K	–	–	1132.2	55
313.15 K	–	–	1128.9	–
318.15 K	–	–	1125.5	–
323.15 K	–	–	1122.2	–
328.15 K	–	–	1118.9	–
333.15 K	–	–	1115.6	–
338.15 K	–	–	1112.3	–
343.15 K	–	–	1109.1	–
348.15 K	–	–	1105.8	–
353.15 K	–	–	1102.6	–

CCCCCCCCCCCCCC[P+](CCCCCC)(CCCCCC)CCCCCC.O=[N+]([O-])c1cn[n-]c1 [trihexyl(tetradecyl)phosphonium 4-nitropyrazolide]
Conditions	Glass transition temperature [°C]	mass density [kg/m3]	viscosity [mPa·s]
–	-75	–	–
278.15 K	–	–	3560
283.15 K	–	948.8	2290
288.15 K	–	945.6	1500
293.15 K	–	942.3	1020
295.15 K	–	941.1	–
298.15 K	–	939.3	710
303.15 K	–	936.4	510
308.15 K	–	933.4	375
313.15 K	–	930.4	280
318.15 K	–	927.4	214
323.15 K	–	924.5	167
328.15 K	–	921.6	133
333.15 K	–	918.7	108
338.15 K	–	915.8	88
343.15 K	–	912.8	74
348.15 K	–	909.9	–
353.15 K	–	907	–

CCCC[S+]1CCCCC1.O=S(=O)([N-]S(=O)(=O)C(F)(F)F)C(F)(F)F [1-butylthianium bis(trifluoromethylsulfonyl)imide]
Conditions	Glass transition temperature [°C]	Normal melting temperature [°C]	viscosity [mPa·s]
–	-82	-10	–
278.15 K	–	–	398
283.15 K	–	–	279
288.15 K	–	–	200
293.15 K	–	–	148
298.15 K	–	–	112
303.15 K	–	–	88
308.15 K	–	–	70
313.15 K	–	–	57

— the NIST ThermoML archive (doi:10.1021/acs.jced.6b00269)
